Measurements taken from US20140080869A1, “Methods for Treating HCV” (priority 2012, published 2014).
Like-named read-outs stand apart in the source and are kept apart here.

Legend:
[1] = tested on: HCV replicon with NS5A genotype 2b wild type; experiment: Transient chimeric replicon assay, genotype 2b WT; type: cell-based; details: Hepatitis C virus
Source text: (§1) Transiently replicating chimeric replicons containing NS5A from genotype 2-6 wild types or replicons containing variants within NS5A were constructed in the 1b-Con1 background. These replicons also contained a firefly luciferase reporter gene. Variants were introduced by site-directed mutagenesis using the Change-IT Multiple Mutation Site Directed Mutagenesis Kit (USB). After the mutagenesis was confirmed by sequence analysis, the plasmids were linearized with ScaI restriction enzyme. The TranscriptAid T7 High Yield Transcription Kit (Fermentas) was used to transcribe the HCV subgenomic RNA from the plasmids. The RNA was transfected via electroporation into a Huh-7 derived cell line as described (see Middleton et al. and Tripathi et al., supra) except that 3×10^6 cells were electroporated with 15 μg of template RNA and the 96 well plate was seeded with 7.5×10^3 cells per well. Four hours post-transfection, the wells from one plate were harvested for luciferase measurement. […] Luciferin solution (50 μl, Promega) was added to each well, and luciferase activity was measured with a Victor II luminometer (Perkin-Elmer). The percent inhibition of HCV RNA replication was calculated for each compound concentration and the EC50 value was calculated using nonlinear regression curve fitting to the 4-parameter logistic equation and GraphPad Prism 4 software.

[2] = tested on: HCV replicon with NS5A genotype 3a M28T variant; experiment: Transient chimeric replicon assay, genotype 3a M28T; type: cell-based
Source text: as §1

[3] = tested on: HCV replicon with NS5A genotype 2a T24A variant; experiment: Transient chimeric replicon assay, genotype 2a T24A; type: cell-based
Source text: as §1

[4] = tested on: HCV replicon with NS5A from genotype 2a; details: read-out: Mean EC50 ± Std. Dev.
[5] = tested on: HCV replicon with NS5A from genotype 3a; experiment: microbe, parasite or virus in culture; details: Hepatitis C virus, read-out: Mean EC50 ± Std. Dev.
[6] = tested on: HCV replicon with NS5A from genotype 3a; details: read-out: Mean EC50 ± Std. Dev.
[7] = tested on: HCV genotype 1b-Con1 stable subgenomic replicon; experiment: microbe, parasite or virus in culture; details: Hepatitis C virus, read-out: Mean EC50 ± Std. Dev.
[8] = tested on: HCV replicon with NS5A from genotype 2b; experiment: microbe, parasite or virus in culture; details: Hepatitis C virus, read-out: Mean EC50 ± Std. Dev.
[9] = tested on: HCV replicon with NS5A genotype 3a Y93H variant; experiment: Transient chimeric replicon assay, genotype 3a Y93H; type: cell-based; details: Hepatitis C virus
Source text: as §1

[10] = tested on: HCV replicon with NS5A genotype 6a T58N variant; experiment: Transient chimeric replicon assay, genotype 6a T58N; type: cell-based
Source text: as §1

[11] = tested on: HCV replicon with NS5A genotype 2b L31V variant; experiment: Transient chimeric replicon assay, genotype 2b L31V; type: cell-based
Source text: as §1

[12] = tested on: HCV replicon with NS5A from genotype 2a; experiment: microbe, parasite or virus in culture; details: Hepatitis C virus, read-out: Mean EC50 ± Std. Dev.
[13] = tested on: HCV replicon with NS5A genotype 6a T58A variant; experiment: Transient chimeric replicon assay, genotype 6a T58A; type: cell-based
Source text: as §1

[14] = tested on: HCV replicon with NS5A genotype 5a wild type; experiment: Transient chimeric replicon assay, genotype 5a WT; type: cell-based; details: Hepatitis C virus
Source text: as §1

[15] = tested on: HCV replicon with NS5A genotype 2a wild type; experiment: microbe, parasite or virus in culture; type: cell-based; details: Hepatitis C virus, read-out: Average EC50
Source text: (§2) Transiently replicating chimeric replicons containing NS5A from genotype 2-6 wild types or replicons containing variants within NS5A were constructed in the 1b-Con1 background. These replicons also contained a firefly luciferase reporter gene. Variants were introduced by site-directed mutagenesis using the Change-IT Multiple Mutation Site Directed Mutagenesis Kit (USB). After the mutagenesis was confirmed by sequence analysis, the plasmids were linearized with ScaI restriction enzyme. The TranscriptAid T7 High Yield Transcription Kit (Fermentas) was used to transcribe the HCV subgenomic RNA from the plasmids. The RNA was transfected via electroporation into a Huh-7 derived cell line as described (see Middleton et al. and Tripathi et al., supra) except that 3×10^6 cells were electroporated with 15 μg of template RNA and the 96 well plate was seeded with 7.5×10^3 cells per well. Four hours post-transfection, the wells from one plate were harvested for luciferase measurement. This plate provided a measure of the amount of translatable input RNA, and therefore transfection efficiency. To the wells of the remaining plates, a half-log dilution series of the test compound in culture medium (0.5% DMSO final concentration) was added, and plates were incubated at 37° C., 5% CO2 in a humidified incubator for 4 days. After this period, the media was removed and the plates were washed with 100 μl phosphate-buffered saline per well. Luciferin solution (50 μl, Promega) was added to each well, and luciferase activity was measured with a Victor II luminometer (Perkin-Elmer). The percent inhibition of HCV RNA replication was calculated for each compound concentration and the EC50 value was calculated using nonlinear regression curve fitting to the 4-parameter logistic equation and GraphPad Prism 4 software.

[16] = tested on: HCV replicon with NS5A genotype 6a wild type; experiment: microbe, parasite or virus in culture; type: cell-based; details: Hepatitis C virus, read-out: Average EC50
Source text: as §2

[17] = tested on: HCV replicon with NS5A genotype 3a wild type; experiment: microbe, parasite or virus in culture; type: cell-based; details: Hepatitis C virus, read-out: Average EC50
Source text: as §2

[18] = tested on: HCV replicon with NS5A from genotype 6a; details: read-out: Mean EC50 ± Std. Dev.
[19] = tested on: HCV replicon with NS5A from genotype 2b; details: read-out: Mean EC50 ± Std. Dev.
[20] = tested on: HCV replicon with NS5A genotype 5a L31V variant; experiment: Transient chimeric replicon assay, genotype 5a L31V; type: cell-based; details: Hepatitis C virus
Source text: as §1

[21] = tested on: HCV replicon with NS5A genotype 5a L31F variant; experiment: Transient chimeric replicon assay, genotype 5a L31F; type: cell-based
Source text: as §1

[22] = tested on: HCV replicon with NS5A from genotype 6a; experiment: microbe, parasite or virus in culture; details: Hepatitis C virus, read-out: Mean EC50 ± Std. Dev.
[23] = tested on: HCV genotype 1b-Con1 stable subgenomic replicon; details: read-out: Mean EC50 ± Std. Dev.

COC(=O)N[C@H](C(=O)N1CCC[C@H]1c1nc2cc([C@H]3CC[C@H](c4ccc5[nH]c([C@@H]6CCCN6C(=O)[C@@H](NC(=O)OC)C(C)C)nc5c4)N3c3cc(F)c(N4CCC(c5ccccc5)CC4)c(F)c3)ccc2[nH]1)C(C)C [Compound 1, methyl {(2S)-1-[(2S)-2-{5-[(2R,5R)-1-[3,5-difluoro-4-(4-phenylpiperidin-1-yl)phenyl]-5-{2-[(2S)-1-{(2S)-2-[(methoxycarbonyl)amino]-3-methylbutanoyl}pyrrolidin-2-yl]-1H-benzimidazol-5-yl}pyrrolidin-2-yl]-1H-benzimidazol-2-yl}pyrrolidin-1-yl]-3-methyl-1-oxobutan-2-yl}carbamate]
EC50 [1]: 1.8 pM | EC50 [2]: 4.6 pM | EC50 ([2]; Hepatitis C virus): < 5 pM | EC50 [3]: 3 pM | EC50 ([3]; Hepatitis C virus): < 5 pM | EC50 [4]: 9 ± 4.6 pM | EC50 [5]: < 10 pM | EC50 [6]: 6.4 ± 2.8 pM | EC50 [7]: < 10 pM | EC50 [8]: < 10 pM | EC50 [9]: 273 pM | EC50 [10]: 3.2 pM | EC50 ([10]; Hepatitis C virus): < 5 pM | EC50 [11]: 3 pM | EC50 ([11]; Hepatitis C virus): < 5 pM | EC50 [12]: < 10 pM | EC50 [13]: 2.5 pM | EC50 ([13]; Hepatitis C virus): < 5 pM | EC50 [14]: 1.1 pM | EC50 [15]: 3 pM | EC50 [16]: 2.4 pM | EC50 [17]: 2.9 pM | EC50 [18]: 8.7 ± 5.5 pM | EC50 [19]: 6.4 ± 3.1 pM | EC50 [20]: < 5 pM | EC50 [21]: 3.3 pM | EC50 ([21]; Hepatitis C virus): < 5 pM | EC50 [22]: < 10 pM | EC50 [23]: 5.1 ± 1.8 pM
